# According to publication PMC8682738, “Constrained peptides mimic a viral suppressor of RNA silencing” (Nucleic Acids Research, 2021):
# Positions of bridges follow the written chain, without caps; N, C: chain ends. Non-standard residues stand in square brackets, D forms with d. Residues, ends and D or L forms follow the SMILES beside them. *: point of attachment. FITC = O=C1OC2(c3ccc(O)cc3Oc3cc(O)ccc32)c2ccc(NC(=S)*)cc21; R8 = C=CCCCCCC[C@@](C)(N)C(=O)O; S5 = C=CCCC[C@](C)(N)C(=O)O; AEEA = NCCOCCOCC(=O)O
# Key:
# pal-DNA = test: EMSA with ds DNA analog of pal-RNA; type: binding; conditions: fluorescein-labeled peptide 3 μM, oligonucleotide 9 μM
# Protocol: Electrophoretic mobility shift assays (EMSAs) were performed using a Bio-Rad Mini-Protean gel system paired with a direct current (DC) power source (PowerPac™ HC, Bio-Rad). […] After incubation, bound RNA was resolved from peptide-free RNA using 10% non-denaturing polyacrylamide gels at 120 V in running buffer (25 mM Tris (pH 8.0), 200 mM glycine, 20 mM NaCl) at 4°C for 1 h. Visualization of fluorescent gel-bound species was conducted using a Typhoon Trio + fluorescence scanner (GE Healthcare Life Sciences). For nucleic acid visualization, gels were stained using 2 μl of SYBR™ gold nucleic acid gel dye (Molecular Probes) in 20 ml of TAE buffer (40 mM Tris, 1 mM EDTA, 20 mM acetic acid) for 45 min at RT before being visualized using a FluorChem™ gel documentation system (Alpha Innotech). To assess B3 binding to different ds RNA sequences (Supplementary Figure S20), 6 μl solutions containing hairpin RNA (c = 1 μM) and fluorescein-labeled B3 (c = 2 μM) were incubated in binding buffer (TAE and 10% glycerol) at RT for 1 h, and then resolved using 15% non-denaturing polyacrylamide gels (acrylamide/bis-acrylamide (19:1) in TAE) at 150 V in running buffer (TAE) at 4°C for 1.5 h. Visualization of fluorescent gel-bound species was conducted using a Bio-Rad ChemiDoc (Bio-Rad). […]
# [1] = tested on: yeast transfer RNAs (t-RNAs); test: EMSA with transfer RNA; type: binding, baker's yeast; conditions: fluorescein-labeled peptide 3 μM, t-RNA 9 μM
# Protocol: Electrophoretic mobility shift assays (EMSAs) were performed using a Bio-Rad Mini-Protean gel system paired with a direct current (DC) power source (PowerPac™ HC, Bio-Rad). Typically, 6 μl solutions containing ds RNA (c = 3 μM) and fluorescein-labeled peptide (c = 6 μM) were incubated in binding buffer (10 mM Tris (pH 8.0), 0.5 mM EDTA, 12.5% glycerol and 150 mM KCl) at 4°C for 1 h. After incubation, bound RNA was resolved from peptide-free RNA using 10% non-denaturing polyacrylamide gels at 120 V in running buffer (25 mM Tris (pH 8.0), 200 mM glycine, 20 mM NaCl) at 4°C for 1 h. Visualization of fluorescent gel-bound species was conducted using a Typhoon Trio + fluorescence scanner (GE Healthcare Life Sciences). For nucleic acid visualization, gels were stained using 2 μl of SYBR™ gold nucleic acid gel dye (Molecular Probes) in 20 ml of TAE buffer (40 mM Tris, 1 mM EDTA, 20 mM acetic acid) for 45 min at RT before being visualized using a FluorChem™ gel documentation system (Alpha Innotech). To assess B3 binding to different ds RNA sequences (Supplementary Figure S20), 6 μl solutions containing hairpin RNA (c = 1 μM) and fluorescein-labeled B3 (c = 2 μM) were incubated in binding buffer (TAE and 10% glycerol) at RT for 1 h, and then resolved using 15% non-denaturing polyacrylamide gels (acrylamide/bis-acrylamide (19:1) in TAE) at 150 V in running buffer (TAE) at 4°C for 1.5 h. […]
# pre-miR-21 = test: Pull-down of pre-miR-21 from K562 cells; type: cell-based, human; conditions: biotinylated peptide 10 μM, streptavidin beads, qRT-PCR, triplicate
# Protocol: 2 × 10^6 K562 cells were incubated with N-terminally biotinylated peptides (c(peptide) = 10 μM, t = 2.5 h) for uptake on a rotating wheel at 37°C. The cells were extensively washed in PBS and lysed in lysis buffer (25 mM HEPES, pH 7.5, 150 mM NaCl, 0.05% IGEPAL CA-630, 1 mM EDTA) supplemented with 0.5 U/μl RNAse inhibitor (Superase-in, ThermoFisher). The lysate was cleared by centrifugation at 21 000 g at 4°C, an aliquot of the supernatant was removed and re-suspended in Trizol, while the remaining was incubated with streptavidin-coupled magnetic beads (Dynabeads M280, ThermoFisher) on a rotating wheel (2 h, 4°C). After magnetic separation and washing (3× in lysis buffer), the beads were re-suspended in 20 μl lysis buffer, re-suspended in Trizol (ThermoFisher), and 400 ng t-RNA was added per sample as a carrier. RNA was extracted from Trizol using the standard protocol and the qRT-PCR was performed according to a previously published protocol ([62]) using the primers h-miR21-3p-FW ([…]), h-miR21-3p-RV ([…]), h-miR21-5p-FW ([…]), h-miR21-5p-RV ([…]) in a CFX96 real-time machine (Bio-Rad). The relative enrichment was calculated as a ratio of copies in the immunoprecipitate over input normalized to the enrichment of the control peptide D1.
# [2] = tested on: K562 human leukemia cells; test: Peptide uptake by flow cytometry; type: cell-based; conditions: fluorescein-labeled peptide 1 μM, 90 min
# Protocol: 2 × 10^6 K562 cells were plated per well in 48-well plates in presence of fluorescein-labeled peptides (c = 1 μM, 0.5% DMSO) in a total volume of 300 μl. After 90 min, cells were treated with proteinase K (2 μg·ml^−1) for 10 min to remove extracellular peptides. Cells were extensively washed and total uptake of labeled peptide was measured by flow cytometry (Cytoflex, Beckman Coulter with the CytExpert software version 2.3). For each peptide, 20 000 events per sample were collected with >85% viable cells (forward/side scatter) that were considered for analysis using a 525/40 nm filter. DMSO was used as a control to distinguish general DMSO-related and peptide-specific effects. Each experiment was performed in triplicate.
SMILES,binding to ds DNA analog of pal-RNA in EMSA (pal-DNA),binding to yeast t-RNA mixture in EMSA [1],enrichment of pre-miR-21 relative to control peptide D1 (pre-miR-21),fold increase in uptake relative to wt33 [2] [fold],cellular uptake (in words) [2]
"CC(C)C[C@H](NC(=O)[C@]1(C)CCCC=CCCC[C@](C)(NC(=O)[C@H](CCC(=O)O)NC(=O)[C@H](CO)NC(=O)[C@@H]2CCCN2C(=O)[C@H](CO)NC(=O)[C@H](CCCCN)NC(=O)[C@H](Cc2c[nH]cn2)NC(=O)CNC(=O)[C@H](CCCNC(=N)N)NC(=O)[C@]2(C)CCCC=CCCC[C@](C)(NC(=O)[C@H](CCCCN)NC(=O)[C@H](Cc3c[nH]cn3)NC(=O)[C@H](CCCNC(=N)N)NC(=O)[C@H](CCCCN)NC(=O)[C@H](CCCNC(=N)N)NC(=O)[C@H](CCC(N)=O)NC(=O)[C@H](C)NC(=O)[C@H](CCC(N)=O)NC(=O)[C@H](CCCCN)NC(=O)[C@H](CCCCN)NC(=O)COCCOCCNC(=S)Nc3ccc4c(c3)C(=O)OC43c4ccc(O)cc4Oc4cc(O)ccc43)C(=O)N[C@@H](CC(N)=O)C(=O)N[C@@H](CCCNC(=N)N)C(=O)N[C@@H](CCCCN)C(=O)N2)C(=O)N[C@@H](CCCNC(=N)N)C(=O)N[C@@H](CCCNC(=N)N)C(=O)N[C@@H](CO)C(=O)N1)C(=O)N[C@@H](Cc1c[nH]c2ccccc12)C(=O)N[C@@H](Cc1c[nH]cn1)C(=O)N[C@@H](C)C(=O)N[C@@H](CCCNC(=N)N)C(N)=O [B3] ({FITC-AEEA}-KKQAQRKRHK[S5]NRK[S5]RGHKSPSE[S5]RRS[S5]LWHAR-NH2; staple 11-15, 24-28)",did not bind,did not observe binding,4 fold,–,–
"CC(C)C[C@@H]1NC(=O)[C@@](C)(NC(=O)[C@H](CO)NC(=O)[C@H](CCCNC(=N)N)NC(=O)[C@H](CCCNC(=N)N)NC(=O)[C@H](CCC(N)=O)NC(=O)[C@H](CCC(=O)O)NC(=O)[C@H](CO)NC(=O)[C@@H]2CCCN2C(=O)[C@H](CO)NC(=O)[C@H](CCCCN)NC(=O)[C@H](Cc2c[nH]cn2)NC(=O)CNC(=O)[C@H](CCCNC(=N)N)NC(=O)[C@H](CCC(=O)O)NC(=O)[C@H](CCCCN)NC(=O)[C@H](CCCNC(=N)N)NC(=O)[C@H](CC(N)=O)NC(=O)[C@]2(C)CCCC=CCCCCCC[C@@](C)(NC(=O)[C@H](CCC(N)=O)NC(=O)[C@H](CCCCN)NC(=O)[C@H](CCCCN)NC(=O)COCCOCCNC(=S)Nc3ccc4c(c3)C(=O)OC43c4ccc(O)cc4Oc4cc(O)ccc43)C(=O)N[C@@H](CCC(N)=O)C(=O)N[C@@H](CCCNC(=N)N)C(=O)N[C@@H](CCCCN)C(=O)N[C@@H](CCCNC(=N)N)C(=O)N[C@@H](Cc3c[nH]cn3)C(=O)N[C@@H](CCCCN)C(=O)N2)CCCC=CCCC[C@@](C)(C(=O)N[C@@H](CCCNC(=N)N)C(N)=O)NC(=O)[C@H](Cc2c[nH]cn2)NC(=O)[C@H](Cc2c[nH]c3ccccc23)NC1=O [C1] ({FITC-AEEA}-KKQ[R8]QRKRHK[S5]NRKERGHKSPSEQRRS[S5]LWH[S5]R-NH2; staple 4-11, 28-32)",did not bind,did not observe binding,did not show detectable pre-miR-21 enrichment,264,–
"CC(C)C[C@@H]1NC(=O)[C@H](CCC(=O)O)NC(=O)[C@H](CO)NC(=O)[C@@](C)(NC(=O)[C@H](CCCNC(=N)N)NC(=O)[C@H](CCC(N)=O)NC(=O)[C@H](CCC(=O)O)NC(=O)[C@H](CO)NC(=O)[C@@H]2CCCN2C(=O)[C@H](CO)NC(=O)[C@H](CCCCN)NC(=O)[C@H](Cc2c[nH]cn2)NC(=O)[C@]2(C)CCCC=CCCCCCC[C@@](C)(NC(=O)[C@H](Cc3c[nH]cn3)NC(=O)[C@H](CCCNC(=N)N)NC(=O)[C@H](CCCCN)NC(=O)[C@H](CCCNC(=N)N)NC(=O)[C@H](CCC(N)=O)NC(=O)[C@H](C)NC(=O)[C@H](CCC(N)=O)NC(=O)[C@H](CCCCN)NC(=O)[C@H](CCCCN)NC(=O)COCCOCCNC(=S)Nc3ccc4c(c3)C(=O)OC43c4ccc(O)cc4Oc4cc(O)ccc43)C(=O)N[C@@H](CC(C)C)C(=O)N[C@@H](CC(N)=O)C(=O)N[C@@H](CCCNC(=N)N)C(=O)N[C@@H](CCCCN)C(=O)N[C@@H](CCC(=O)O)C(=O)N[C@@H](CCCNC(=N)N)C(=O)N2)CCCC=CCCC[C@@](C)(C(=O)N[C@@H](Cc2c[nH]cn2)C(=O)N[C@@H](C)C(=O)N[C@@H](CCCNC(=N)N)C(N)=O)NC1=O [D1] ({FITC-AEEA}-KKQAQRKRH[R8]LNRKER[S5]HKSPSEQR[S5]SEL[S5]HAR-NH2; staple 10-17, 26-30)",–,–,–,–,considerably enhanced cellular uptake
